According to publication PMC8145986, “In Vitro Enzymatic and Kinetic Studies, and In Silico Drug-Receptor Interactions, and Drug-Like Profiling of the 5-Styrylbenzamide Derivatives as Potential Cholinesterase and β-Secretase Inhibitors with Antioxidant Properties” (Antioxidants, 2021):

Biological target: T1, AChE (Homo sapiens, UniProt P22303)
T1 construct: purchased BioLegend (via Biocom Africa (Pty) Ltd.)
Assay: Enzyme kinetic study against AChE (Lineweaver-Burk and Dixon plots)
Type: biochemical
Procedure: The AChE and BChE enzyme kinetic studies were performed in triplicate in a 96-well plate following a procedure described in our previous study. Varying concentrations of 2a or 3c (0, 2.5, 3.5, and 5 μM) and AChI or BChI (0.1, 0.5, 2.5, and 5 mM) were used for the kinetic assays. The absorbances were measured after every 1 s for 10 s at a wavelength of 412 nm using a microplate spectrophotometer reader. The Lineweaver–Burk plots (plot of the inverse of velocity (1/v) against the inverse of the substrate concentration (1/[S])) were constructed.

T1 sequence (P22303 32-614): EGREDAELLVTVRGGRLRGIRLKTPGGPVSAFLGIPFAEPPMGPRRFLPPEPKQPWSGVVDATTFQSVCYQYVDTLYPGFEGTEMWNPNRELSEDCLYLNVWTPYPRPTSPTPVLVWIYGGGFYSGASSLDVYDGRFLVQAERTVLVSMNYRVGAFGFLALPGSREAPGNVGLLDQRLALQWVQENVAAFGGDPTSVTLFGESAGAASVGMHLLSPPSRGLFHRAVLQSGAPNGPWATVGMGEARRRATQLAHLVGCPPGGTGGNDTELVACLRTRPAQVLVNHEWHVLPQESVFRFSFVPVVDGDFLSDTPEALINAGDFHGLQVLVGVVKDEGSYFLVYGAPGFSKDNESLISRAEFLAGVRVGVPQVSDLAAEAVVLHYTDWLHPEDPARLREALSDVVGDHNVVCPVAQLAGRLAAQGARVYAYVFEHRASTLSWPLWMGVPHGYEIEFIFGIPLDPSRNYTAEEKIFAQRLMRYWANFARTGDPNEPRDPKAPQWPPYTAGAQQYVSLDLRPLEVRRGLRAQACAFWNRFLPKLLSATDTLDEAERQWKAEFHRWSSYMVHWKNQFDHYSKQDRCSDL

In the case of `NC(=O)c1cc(/C=C/c2ccccc2)ccc1N` [Compound 2a, (E)-2-Amino-5-styrylbenzamide], the “mode of inhibition AChE” value is reported as “non-competitive” and the Ki (read-out: Ki (Dixon plot) AChE) is reported as 1200 nM.
